Reference: the NIST ThermoML archive (doi:10.1021/je100148h)

Experiment: xn = mol fraction of the nth substance listed
Conditions: Fluid (supercritical or subcritical phases), Burnett expansion method

CCC [propane] + O=C=O
Conditions | mass density [kg/m3]
380.03 K, 2510.4 kPa, x2 = 0.5158 | 38.978
380.03 K, 7010.3 kPa, x2 = 0.5158 | 141.07
380.04 K, 211.45 kPa, x2 = 0.5158 | 2.9713
380.04 K, 290.81 kPa, x2 = 0.5158 | 4.0993
390.02 K, 2384.9 kPa, x2 = 0.8017 | 34.4507
390.02 K, 3446.3 kPa, x2 = 0.5158 | 53.7433
390.02 K, 5838.5 kPa, x2 = 0.5158 | 102.241
390.03 K, 193.15 kPa, x2 = 0.8017 | 2.6342
390.03 K, 217.06 kPa, x2 = 0.5158 | 2.9702
390.03 K, 265.87 kPa, x2 = 0.8017 | 3.6329
390.03 K, 365.64 kPa, x2 = 0.8017 | 5.0098
390.03 K, 410.13 kPa, x2 = 0.5158 | 5.6532
390.03 K, 502.51 kPa, x2 = 0.8017 | 6.9089
390.03 K, 689.66 kPa, x2 = 0.8017 | 9.5275
390.03 K, 769.82 kPa, x2 = 0.5158 | 10.759
390.03 K, 944.86 kPa, x2 = 0.8017 | 13.1385
390.03 K, 1050.5 kPa, x2 = 0.5158 | 14.8425
390.03 K, 1428 kPa, x2 = 0.5158 | 20.475
390.03 K, 1758.8 kPa, x2 = 0.8017 | 24.9833
390.03 K, 1931.7 kPa, x2 = 0.5158 | 28.245
390.03 K, 2593.4 kPa, x2 = 0.5158 | 38.9614
390.03 K, 3214.7 kPa, x2 = 0.8017 | 47.5025
390.03 K, 4298.5 kPa, x2 = 0.8017 | 65.4967
390.03 K, 4522.9 kPa, x2 = 0.5158 | 74.1282
390.03 K, 5688.3 kPa, x2 = 0.8017 | 90.3013
390.03 K, 7399 kPa, x2 = 0.5158 | 141.004
390.03 K, 7432.4 kPa, x2 = 0.8017 | 124.497
390.04 K, 298.57 kPa, x2 = 0.5158 | 4.0977
390.04 K, 562.52 kPa, x2 = 0.5158 | 7.7989
390.04 K, 1291.3 kPa, x2 = 0.8017 | 18.1174
400.02 K, 970.17 kPa, x2 = 0.8017 | 13.1371
400.03 K, 272.65 kPa, x2 = 0.8017 | 3.6324
400.03 K, 375.15 kPa, x2 = 0.8017 | 5.0093
400.03 K, 515.7 kPa, x2 = 0.8017 | 6.908
400.03 K, 577.33 kPa, x2 = 0.5158 | 7.7944
400.03 K, 707.92 kPa, x2 = 0.8017 | 9.5262
400.03 K, 790.53 kPa, x2 = 0.5158 | 10.7528
400.03 K, 1079.5 kPa, x2 = 0.5158 | 14.8335
400.03 K, 1326.5 kPa, x2 = 0.8017 | 18.1154
400.03 K, 1468.7 kPa, x2 = 0.5158 | 20.4633
400.03 K, 1808.4 kPa, x2 = 0.8017 | 24.9801
400.03 K, 2454.9 kPa, x2 = 0.8017 | 34.4454
400.03 K, 3565.3 kPa, x2 = 0.5158 | 53.7096
400.03 K, 6095.5 kPa, x2 = 0.5158 | 102.176
400.03 K, 7739.4 kPa, x2 = 0.8017 | 124.476
400.03 K, 7784.2 kPa, x2 = 0.5158 | 140.912
400.04 K, 198.07 kPa, x2 = 0.8017 | 2.6338
400.04 K, 222.65 kPa, x2 = 0.5158 | 2.9684
400.04 K, 306.29 kPa, x2 = 0.5158 | 4.0953
400.04 K, 420.82 kPa, x2 = 0.5158 | 5.6498
400.04 K, 1989.5 kPa, x2 = 0.5158 | 28.2277
400.04 K, 2676 kPa, x2 = 0.5158 | 38.9372
400.04 K, 3314.3 kPa, x2 = 0.8017 | 47.4952
400.04 K, 4441.8 kPa, x2 = 0.8017 | 65.4859
400.04 K, 4696.7 kPa, x2 = 0.5158 | 74.0811
400.04 K, 5896.6 kPa, x2 = 0.8017 | 90.2853
